Target: Mitogen-activated protein kinase kinase kinase kinase 1 (Homo sapiens, UniProt Q92918)
Test: HPK1 Kinase Assay
Experimental: A recombinant fusion protein consisting of full-length human HPK1 (MAP4K1) with an N-terminal Glutatione S-transferase (GST) tag was produced in insect cells Sf21 using the baculovirus expression system. GST-HPK1 protein was purified from cell lysates by glutathione Sepharose affinity chromatography. The assay is run in three continuous steps: 1) the HPK1 enzymatic kinase reaction, 2) an ATP depletion, and 3) the ADP detection, the steps 2 and 3 are performed with ADP-Glo™ Kinase Assay kit from Promega (V9101). Test compounds were prepared by 10-point serial dilution in dimethyl sulfoxide (DMSO) and 100 nL of each dilution was spotted onto a 384-well Optiplate (Perkin Elmer and Cat #6007299) by Labcyte Echo. 5 μL kinase reaction buffer (0.02% Brij-35, 2 mM DTT, 50 mM HEPES pH 7.5, MgCl2 10 mM, BSA 0.01% and β-glycerophosphate 12.5 mM) containing HPK1 (3.2 nM) enzyme was transferred to each well and incubated for 15 minutes at room temperature at 60% humidity. The enzymatic reaction was started by adding 5 μl of Start-Mix (10 μM ATP and 3.235 μM MBP). After 120 minutes, the reaction was stopped by adding 5 μL of ADP-Glo reagent (Promega, V9101) and incubating for 40 min. in the dark at 23° C. To determine the level of ADP, 10 μl ADP-Glo Detection solution was added and incubated for 1 hour at 23° C. in the dark. The plate was transferred to a Perkin Elmer EnVision (2104 Multilabel Reader) for luminescence detection and percent inhibition activity and IC50 value were determined using Genedata Screener.

Sequence of Mitogen-activated protein kinase kinase kinase kinase 1 (Q92918 whole entry): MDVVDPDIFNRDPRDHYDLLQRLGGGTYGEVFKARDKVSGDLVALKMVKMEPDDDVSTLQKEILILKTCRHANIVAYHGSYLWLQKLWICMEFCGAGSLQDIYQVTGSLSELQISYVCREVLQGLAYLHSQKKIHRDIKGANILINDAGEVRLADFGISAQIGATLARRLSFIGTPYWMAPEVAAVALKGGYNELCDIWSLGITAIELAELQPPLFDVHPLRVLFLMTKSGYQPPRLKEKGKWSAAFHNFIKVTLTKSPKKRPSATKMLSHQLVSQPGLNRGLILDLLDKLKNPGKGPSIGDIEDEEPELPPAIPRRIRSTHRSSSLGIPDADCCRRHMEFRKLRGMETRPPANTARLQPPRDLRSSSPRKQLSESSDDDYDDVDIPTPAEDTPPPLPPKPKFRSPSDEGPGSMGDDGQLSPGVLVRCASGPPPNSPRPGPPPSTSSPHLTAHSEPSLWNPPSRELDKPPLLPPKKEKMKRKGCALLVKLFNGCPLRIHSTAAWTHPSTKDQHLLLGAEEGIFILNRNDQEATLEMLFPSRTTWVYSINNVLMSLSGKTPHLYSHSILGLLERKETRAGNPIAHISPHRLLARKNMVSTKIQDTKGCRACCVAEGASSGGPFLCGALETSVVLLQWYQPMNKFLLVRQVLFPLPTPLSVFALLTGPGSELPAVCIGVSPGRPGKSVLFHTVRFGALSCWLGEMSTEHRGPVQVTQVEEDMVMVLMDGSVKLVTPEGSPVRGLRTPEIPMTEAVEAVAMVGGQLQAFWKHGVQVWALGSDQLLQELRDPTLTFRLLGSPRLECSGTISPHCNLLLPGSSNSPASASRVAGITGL

Structure (SMILES)	IC50 [nM]
COCc1n[nH]c(-c2cc(C(N)=O)c3ncnc(N[C@H]4CCCNC4)c3n2)n1 [US20250320228, Example 13]	> 1000
NC(=O)c1cc(-c2cc(F)c(OCC3(O)CCC3)c(F)c2)nc2c(N[C@H]3CCCNC3)ncnc12 [US20250320228, Example 39]	< 100
C[C@@H](N)CNc1ncnc2c(C(N)=O)cc(-c3ccc(CN4CCOCC4)cc3)nc12 [US20250320228, Example 25]	< 100
NC(=O)c1cc(-c2ccc(CN3CCOCC3)cc2)nc2c(NC34CNCC3C4)ncnc12 (stereo not given) [US20250320228, Example 20]	< 100
NC(=O)c1cc(-c2ccc(CN3CCOCC3)cc2)nc2c(N3CC[C@@H](F)[C@H](N)C3)ncnc12 [US20250320228, Example 22]	> 1000
CN1CCc2cc(-c3cc(C(N)=O)c4ncnc(N[C@H]5CCCNC5)c4n3)nn2CC1=O [US20250320228, Example 45]	< 100
N#C[C@H]1COCCN1Cc1ccc(-c2cc(C(N)=O)c3ncnc(N[C@H]4CCCNC4)c3n2)cc1 [US20250320228, Example 14]	< 100
NC(=O)c1cc(-c2ccc(CN3CCOCC3)cc2)nc2c(N[C@@H]3CNC[C@H](F)C3)ncnc12 [US20250320228, Example 26]	< 100
NC(=O)c1cc(-c2ccc(OC(F)(F)F)cc2)nc2c(N[C@@H]3CNC[C@H](F)C3)ncnc12 [US20250320228, Example 71]	< 100
NC(=O)c1cc(-c2ccc(CN3CCOC[C@H]3C(F)(F)F)cc2)nc2c(N[C@H]3CCCNC3)ncnc12 [US20250320228, Example 15]	< 100

From BindingDB's records for patent US20250320228 (Merck Patent, 2025)
